Results taken from paper PMC8571951, “An activity‐based bioprobe differentiates a novel small molecule inhibitor from a LOXL2 antibody and provides renewed promise for anti‐fibrotic therapeutic strategies” (Clinical and Translational Medicine, 2021).

Assay: Tissue levels after single oral dose in the rat
Assay type: in vivo
Settings: single oral dose 30 mg/kg, 1 and 4 h
Experimental: FIGURE 2 Characteristics of PXS‐5338 and inhibition of lysyl oxidase‐like 2 (LOXL2) enzymatic activity in vitro and in vivo. (A) Chemical structure of PXS‐5338. […] (B) Tissue levels of PXS‐5338 measured 1 and 4 h after a single oral dose of 30 mg/kg in the rat. […] Average data from three different animals. (C) Concentration‐dependent inhibition of native […] LOX and rh LOXL1‐4 in a standard Amplex Red assay with 30 min pre‐incubation; n ≥3 independent experiments, standard error of mean (SEM). (D) PXS‐5338 inhibits rh LOXL2 in a time‐dependent manner, with increasing potency observed upon longer incubation with the enzyme. LOXL2 activity data devised from Amplex Red assay using putrescine as substrate and varying pre‐incubation times; n ≥3 independent experiments, standard error of mean (SEM). […] AB0023 and the corresponding isotype control antibody GS834298 were kindly provided by Gilead. Concentration‐response curves for the pan‐LOX inhibitor BAPN and LOXL2‐selective inhibitor PXS‐5338 are included for comparison. Data represented as mean ± SD with n = 5/concentration. […] To enable translation of preclinical data into the clinic, human plasma was incubated with different concentrations of PXS‐5338 for 30 min and the PXS‐5878/Simoa® platform used to measure the residual activity. […]

SMILES: CC(C)c1c(Cc2ccc(S(C)(=O)=O)nc2)c2ncccc2n1C/C(F)=C/CN [PXS‐5338]
- Tissue penetration / distribution: good penetration, with preferential distribution to the liver followed by the kidney, lung and heart
